Values quoted from earlier work as cited in US12030852B2, “Method for producing fatty alcohol esters of hydroxycarboxylic acids” (IOI Oleo GmbH, priority 2019, dated 2024).

Details: even if several grams are taken; short plasma half-life

duration of ketosis: about three to four
SMILES: CC(O)CC(=O)O (stereo not shown) [3-hydroxybutyric acid]
